Key:
[1] = Drug concentrations in liver tissue, Test Example 5; type: in vivo, ICR mice; details: mouse liver at 1 hr and 6 hr, 10 mg/kg intragastric
Experimental: ICR mice, weighing 20-30 g, were divided into 4 groups after fasting overnight, with 8 mice in each group. The first group was intragastrically administered 10 mg/kg solution of compound MGL-3196 prepared in Example 1, the second group was intragastrically administered 10 mg/kg solution of compound 2A prepared in Example 2 (The dosage is calculated by the relative content of compound MGL-3196 prepared in Example 1), the third group was intragastrically administered 10 mg/kg solution of compound 2B prepared in Example 2 (The dosage is calculated by the relative content of compound MGL-3196 prepared in Example 1) and the fourth group was intragastrically administered 10 mg/kg solution of compound 6B prepared in Example 6 (The dosage is calculated by the relative content of compound MGL-3196 prepared in Example 1), wherein the vehicle of the solution of compound MGL-3196, compound 2A, compound 2B and compound 6B is DMSO/PEG400. The livers of mice in each group were collected at 1 hr and 6 hr after administration, respectively, and the concentration of the active ingredient MGL-3196 in the liver was determined by LC/MS/MS.

[2] = tested on: Diet-Induced Obesity (DIO) C57Bl/6J mouse; assay: Diet-induced obesity (DIO) C57Bl/6J mouse model; type: in vivo; details: DIO C57Bl/6J mice, 1, 3 or 10 mg/kg intragastric, 23 consecutive days
Experimental: 6-week-old C57Bl/6J mice were given a high-fat diet for 34 weeks. Mice were intragastrically administered vehicle (2% Klucel LF, 0.1% Tween 80 in water); 1, 3 or 10 mg/kg of compound 2A, compound 2B prepared in Example 2 or compound MGL-3196 prepared in Example 1 starting from day 0 (1st day of 35 weeks) respectively, 9 mice in each group, for 23 consecutive days. In a parallel study, mice were intragastrically administered vehicle (Dulbecco's phosphate buffered saline, pH adjusted to 9.0 with 1N NaOH) or 10, 30 or 100 μg/kg triiodothyronine (T3) starting from day 0 (day 1 of week 35) respectively, 9 mice in each group, for 23 consecutive days. Body weight and food intake were monitored during the study. BMD and body composition analyses were performed on day 22. At necropsy on day 23, organ weighing was performed and cholesterol and other blood biochemical parameters of blood samples were evaluated.

[3] = Pharmacokinetic testing evaluation, Test Example 4 (rat plasma); type: in vivo, SD rats; details: for plasma exposure AUC relative to compound MGL-3196: rats, 10 mg/kg intragastric, Table 5
Experimental: (§1) Male SD rats, weighing about 220 g, were divided into 3 groups after fasting overnight, with 4 rats in each group. The first group was intragastrically administered 10 mg/kg solution of compound MGL-3196 prepared in Example 1, the second group was intragastrically administered 10 mg/kg solution of compound 2A prepared in Example 2 (The dosage is calculated by the relative content of compound MGL-3196 prepared in Example 1), and the third group was intragastrically administered 10 mg/kg solution of compound 2B prepared in Example 2 (The dosage is calculated by the relative content of compound MGL-3196 prepared in Example 1), wherein the vehicle of the solution of compound MGL-3196, compound 2A, and compound 2B is DMSO/PEG400. Blood was collected from each group at 0.5, 1.0, 2.0, 4.0, 6.0, 8.0, 12 and 24 hours after administration, and the concentration of active ingredient MGL-3196 in plasma was determined by LC/MS/MS.

[4] = Pharmacokinetic testing evaluation, Test Example 3 (rat plasma); type: in vivo, SD rats
Experimental: as §1, with “1, and” for “1,”, “6B” for “2A”, “6” for “2 (The dosage is calculated by the relative content of compound MGL-3196 prepared in Example 1), and the third group was intragastrically administered 10 mg/kg solution of compound 2B prepared in Example 2”, “MGL-3196” for “MGL-3196, compound 2A,”, “6B prepared in Example 6” for “2B”

[5] = Pharmacokinetic testing evaluation, Test Example 2 (rat plasma); type: in vivo; details: male SD rats, intragastric 10 mg/kg (calculated based on MGL-3196), DMSO/PEG400; MGL-3196 measured in plasma; n = 4, mean
Experimental: Male SD rats, weighing about 220 g, were divided into 2 groups after fasting overnight, with 4 rats in each group. The first group was intragastrically administered 10 mg/kg solution of compound MGL-3196 prepared in Example 1, and the second group was intragastrically administered 10 mg/kg solution of compound 6A prepared in Example 6 (The dosage is calculated by the relative content of compound MGL-3196 prepared in Example 1), wherein the vehicle of the solution of MGL-3196 compound and compound 6A prepared in Example 6 is DMSO/PEG400. Blood was collected from each group at 0.5, 1.0, 2.0, 4.0, 6.0, 8.0, 12 and 24 hours after administration, and the concentration of active ingredient MGL-3196 in plasma was determined by LC/MS/MS.

[6] = Pharmacokinetic testing evaluation, Test Example 1 (rat plasma); type: in vivo; details: male SD rats, intragastric 10 mg/kg (calculated based on MGL-3196), DMSO/PEG400; plasma concentration of MGL-3196; n = 4, mean
Experimental: Male SD rats, weighing about 220 g, were divided into 2 groups after fasting overnight, with 4 rats in each group. The first group was intragastrically administered 10 mg/kg solution of compound MGL-3196 prepared in Example 1, and the second group was intragastrically administered 10 mg/kg solution of compound of Example 5 of WO2009037172A1 (The dosage is calculated by the relative content of compound MGL-3196 prepared in Example 1), wherein the vehicle of the solution of compound MGL-3196 and compound of Example 5 of WO2009037172A1 is DMSO/PEG400. Blood was collected from each group at 0.5, 1.0, 2.0, 4.0, 6.0, 8.0, 12 and 24 hours after administration, and the concentration of active ingredient MGL-3196 in plasma was determined by LC/MS/MS.

[7] = male SD rats, intragastric 10 mg/kg (calculated based on MGL-3196), DMSO/PEG400, MGL-3196 measured in plasma, n = 4, mean

| drug concentration in mouse liver compared to MGL-3196 [1] | plasma exposure AUC relative to compound MGL-3196 [3] | plasma exposure AUC relative to compound MGL-3196 ([4]; rats, 10 mg/kg intragastric, Table 4) | T1/2 [5] | Tmax [5] | T1/2 [3, 7] | Tmax [3, 7] | T1/2 [6] | Tmax [6] | T1/2 [4, 7] | Tmax [4, 7] | Compound | efficacy in lowering cholesterol and liver fat [2] |
| --- | --- | --- | --- | --- | --- | --- | --- | --- | --- | --- | --- | --- |
| higher drug concentrations | 1.87 times | – | – | – | – | – | – | – | – | – | CC(C)OC(=O)OC(C)Oc1nnc(Oc2c(Cl)cc(-n3nc(C#N)c(=O)[nH]c3=O)cc2Cl)cc1C(C)C (centres unmarked) [Compound 2B, 1-((6-(2,6-dichloro-4-(6-cyano-3,5-dioxo-4,5-dihydro-1,2,4-triazin-2(3H)-yl)phenoxy)-4-isopropylpyridazin-3-yl)oxy)ethyl Isopropyl Carbonate] | excellent efficacy in lowering cholesterol and liver fat |
| higher drug concentrations | 2.4 times | – | – | – | – | – | – | – | – | – | CC(C)OC(=O)OC(C)n1nc(Oc2c(Cl)cc(-n3nc(C#N)c(=O)[nH]c3=O)cc2Cl)cc(C(C)C)c1=O (centres unmarked) [Compound 2A, 1-(3-(2,6-dichloro-4-(6-cyano-3,5-dioxo-4,5-dihydro-1,2,4-triazin-2(3H)-yl)phenoxy)-5-isopropyl-6-oxopyridazin-1(6H)-yl)ethyl Isopropyl Carbonate] | excellent efficacy in lowering cholesterol and liver fat |
| higher drug concentrations | – | 2.0 times | – | – | – | – | – | – | – | – | CC(C)OC(=O)OCOc1nnc(Oc2c(Cl)cc(-n3nc(C#N)c(=O)[nH]c3=O)cc2Cl)cc1C(C)C [Compound 6B, ((6-(2,6-dichloro-4-(6-cyano-3,5-dioxo-4,5-dihydro-1,2,4-triazin-2(3H)-yl)phenoxy)-4-isopropylpyridazin-3-yl)oxy)methyl Isopropyl Carbonate] | excellent efficacy in lowering cholesterol and liver fat |
| – | – | – | 3.54 h | 5.00 h | 3.73 h | 4.5 h | 3.35 h | 2.75 h | 3.55 h | 6.0 h | CC(C)c1cc(Oc2c(Cl)cc(-n3nc(C#N)c(=O)[nH]c3=O)cc2Cl)n[nH]c1=O [MGL-3196, 2-(3,5-dichloro-4-((5-isopropyl-6-oxo-1,6-dihydropyridazin-3-yl)oxy)phenyl)-3,5-dioxo-2,3,4,5-tetrahydro-1,2,4-triazin-6-carbonitrile] | – |
